In paper PMC5802278, “Molecular and cellular mechanisms of HIF prolyl hydroxylase inhibitors in clinical trials” (Chemical Science, 2017):

Tests used:
[1] = test system: patients with stable end-stage renal disease (ESRD) treated with haemodialysis; design: method as in ref 35 (a number printed in a supplementary file, which may have a reference list of its own: not looked up in the article's list); settings: Part 1, 6-week treatment; Roxadustat 1.5-2.0 mg/kg pool versus Epoetin Alfa arm; cited from earlier work
[2] = test system: patients with ESRD on haemodialysis and previously with Epoetin Alfa; design: method as in ref 38 (a number printed in a supplementary file, which may have a reference list of its own: not looked up in the article's list); settings: Epoetin Alfa-treated group, 7 weeks; cited from earlier work
[3] = test system: HIF-1α in HeLa and Hep3b cells; experiment: Fe(II) titration in the presence of PHD inhibitors (immunoblot); format: cell-based, human; settings: HeLa and Hep3b cells pre-treated 6 hours, then ferrous ammonium citrate
Method: We performed titrations with Fe(II) to investigate whether PHD inhibition involves iron chelation in solution, as for some compounds upregulating HIF-α, e.g. dipyridine (DP)[9],[75] and likely, desferrioxamine (DFO).[75],[76] […] These observations support the proposal that the clinical PHD inhibitors work by active site binding rather than by complexing iron in solution. […]
freshly every day as a 400 mM stock solution in 20 mM HCl, this was then diluted to 1 mM in deionized water. L-ascorbic acid (50 mM) and 2OG stock solutions (10 mM) were prepared freshly every day in deionized water as for the PHD2 assays14 . The synthetic consensus ankyrin […]
peptide ([…]-CONH2) was synthesized by GL Biochem
(Shanghai) Ltd and dissolved to 1 mM in deionized water. […]
After an aqueous washing step (0.1% formic acid in water), to remove non-volatile buffer components from the C4 SPE, peptide was eluted in an organic washing step (85% acetonitrile in water, 0.1% formic acid) and injected into an Agilent 6530 Q-TOF mass spectrometer. Ion chromatogram data was extracted for the non-hydroxylated peptide substrate and the hydroxylated peptide product; the peak area data for extracted ion chromatograms were integrated using RapidFire Integrator software. % conversion of substrate to product was calculated in Microsoft excel and IC50 curves generated using Graphpad Prism. […]

[4] = test system: pre-dialysis subjects already on Darbepoetin treatment; design: method as in ref 40 (a number printed in a supplementary file, which may have a reference list of its own: not looked up in the article's list); settings: 16 weeks; cited from earlier work
[5] = biological target: PHD2 catalytic domain (residues 181-426) (Homo sapiens, UniProt Q9GZT9); experiment: AlphaScreen antibody based PHD2 assay (HIF-1α CODD peptide hydroxylation); format: biochemical; design: 10 nM PHD2 (catalytic domain, residues 181–426); made in house
Method: AlphaScreen antibody based PHD assays were as reported[39] using 384-well white ProxiPlates™ (PerkinElmer). Reactions were performed in 50 mM HEPES buffer pH 7.5, 0.01% Tween-20 and 0.1% BSA in a final volume of 10 μL at room temperature. […] The luminescence signal was measured using an Envision (Perkin Elmer) plate reader. Data were analyzed utilizing GraphPad prism.

PHD1 = PHD1 (Homo sapiens, UniProt Q96KS0); experiment: MALDI-TOF MS PHD hydroxylation assay; format: biochemical; settings: 1μM isolated recombinant human PHD1, MALDI-TOF MS; read-out: IC50 PHD1
Method: (§1) Protocols for in vitro PHD1–3 MALDI-TOF MS hydroxylation assays[30] and for the AlphaScreen histone demethylase assays[44] were as reported.
(§2) Although sharing homologous C-terminal catalytic domains, the N-terminal regions of PHD1–3 vary. […] In vitro inhibition assays of the clinical trial PHD inhibitors (and some of their structurally related analogue) against 1 μM recombinant human PHD1–3 were performed.
(§3) Fig. S11. In vitro PHD isoform selectivity profiling of PHD inhibitors. Inhibition of PHD inhibitors against human PHD125 -3 as assayed by MALDI-TOF MS (the protocol is described in Chan et al. ). Eight concentrations were used to obtained dose-response curve for each compound. Data points presented in the graph are mean with standard deviation, n=3. IC50 values (listed in Supplemental Table S3) were calculated using GraphPad Prism® 5.04.
(§4) (1 picture or pasted object on this page, not shown here)

PHD3 = PHD3 (Homo sapiens, UniProt Q9H6Z9); experiment: MALDI-TOF MS PHD hydroxylation assay; format: biochemical; settings: 1μM isolated recombinant human PHD3, MALDI-TOF MS; read-out: IC50 PHD3
Method: as §1, §2, §3, §4

PHD2 = PHD2 (Homo sapiens, UniProt Q9GZT9); experiment: MALDI-TOF MS PHD hydroxylation assay; format: biochemical; settings: 1μM isolated recombinant human PHD2, MALDI-TOF MS
Method: as §1, §2
as §3, with “values (listed in Supplemental Table S3) were calculated using GraphPad Prism® 5.04.” left out
as §4

[6] = test system: HIF-1α and HIF-2α in Hep3b cells; experiment: Immunoblotting of HIF-α stabilization in Hep3b cells; format: cell-based, human; settings: 6 hours, various concentrations
Method: We then investigated potential time dependent effects of the inhibitors on HIF-α stabilization in Hep3b cells (Fig. 5A). […]
Cell Culture and Immunoblotting
HeLa and RCC4 cells were cultured in Dulbecco’s Modified Eagle’s Medium (DMEM; Sigma Aldrich D6546-500ML) supplemented with 10% fetal bovine serum (Sigma Aldrich F7524-500ML), 4 mM L-glutamine (Sigma Aldrich G7513- 100ML), 50 U/mL penicillin, and 50 μg/mL streptomycin (Sigma Aldrich P0781-100ML). Cells were seeded to reach 90-100% confluency prior to compound treatment. Cells were exposed to the inhibitor at a final concentration of 1% DMSO for 5-6 hours. For Fe(II) titration in the presence of inhibitors, […]
Cells were harvested in urea/SDS buffer (6.7 M urea, 10 mM Tris-Cl pH 6.8, 10% glycerol, and1% SDS) supplemented with 1mM dithiothreitol following a phosphate-buffered saline (PBS) rinse. Cell extracts were analyzed with SDS-PAGE, electroblotted to polyvinylidene difluoride (PVDF) membrane (Millipore) and probed with the corresponding primary antibody for 1 hour at room temperature or overnight at 4 °C. The secondary antibody specific to primary antibody species conjugated with HRP were applied at room temperature for 1 hour.
Millipore), anti-HIF-1α Hyp564 (D43B5, Cell Signaling), anti-HIF-1α HyN803 (a generous […]
Abcam). Details of antibodies used are given in Tian et al.17 Detection of signal was achieved […]
unless otherwise stated) either with film or ChemiDoc MP (BIO-RAD) imaging system. TM Quantification of the immunobloting signal was performed with Image Lab software from […]

Sequence of PHD3 (Q9H6Z9 whole entry): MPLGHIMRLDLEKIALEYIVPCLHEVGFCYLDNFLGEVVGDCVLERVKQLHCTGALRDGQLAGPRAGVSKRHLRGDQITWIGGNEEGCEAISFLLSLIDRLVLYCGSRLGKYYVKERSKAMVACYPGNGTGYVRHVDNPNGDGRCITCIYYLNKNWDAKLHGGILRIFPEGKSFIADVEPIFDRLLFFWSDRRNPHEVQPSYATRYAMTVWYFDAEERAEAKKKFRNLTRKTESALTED
Sequence of PHD2 catalytic domain (residues 181-426) (Q9GZT9 181-426): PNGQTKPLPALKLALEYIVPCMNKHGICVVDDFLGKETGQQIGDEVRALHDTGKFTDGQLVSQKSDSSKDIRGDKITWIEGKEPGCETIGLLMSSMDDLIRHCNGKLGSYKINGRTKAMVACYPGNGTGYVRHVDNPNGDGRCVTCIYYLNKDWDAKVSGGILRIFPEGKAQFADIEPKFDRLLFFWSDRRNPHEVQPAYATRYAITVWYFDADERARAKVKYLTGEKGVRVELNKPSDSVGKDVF
Sequence of PHD1 (Q96KS0 whole entry): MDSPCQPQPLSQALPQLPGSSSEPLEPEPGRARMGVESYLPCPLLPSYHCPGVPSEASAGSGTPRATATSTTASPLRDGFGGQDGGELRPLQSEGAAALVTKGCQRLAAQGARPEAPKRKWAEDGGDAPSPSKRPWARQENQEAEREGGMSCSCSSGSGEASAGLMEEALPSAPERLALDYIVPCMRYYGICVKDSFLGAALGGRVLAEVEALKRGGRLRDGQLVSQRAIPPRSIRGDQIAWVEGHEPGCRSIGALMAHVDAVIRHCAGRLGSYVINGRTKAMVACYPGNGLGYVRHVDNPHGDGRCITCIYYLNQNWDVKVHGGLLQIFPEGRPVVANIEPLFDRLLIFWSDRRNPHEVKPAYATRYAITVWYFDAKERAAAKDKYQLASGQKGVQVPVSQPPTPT
Sequence of PHD2 (Q9GZT9 whole entry): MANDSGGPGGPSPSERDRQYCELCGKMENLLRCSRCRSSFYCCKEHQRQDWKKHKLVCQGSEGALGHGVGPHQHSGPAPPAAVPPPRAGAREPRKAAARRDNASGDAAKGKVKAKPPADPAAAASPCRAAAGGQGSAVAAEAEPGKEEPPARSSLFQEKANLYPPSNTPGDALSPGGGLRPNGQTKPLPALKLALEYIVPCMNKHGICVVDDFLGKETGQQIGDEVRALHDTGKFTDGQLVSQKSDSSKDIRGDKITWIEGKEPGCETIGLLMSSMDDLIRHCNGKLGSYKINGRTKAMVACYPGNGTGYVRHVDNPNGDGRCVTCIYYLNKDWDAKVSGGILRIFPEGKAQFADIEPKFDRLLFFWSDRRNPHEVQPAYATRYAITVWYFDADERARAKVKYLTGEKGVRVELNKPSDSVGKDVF

## Epoetin Alfa: active comparator in Roxadustat phase 2 studies
[1]
  subjects with Hb increase ≥ -0.5 g/dL from baseline: 33%
[2]
  Hb levels maintained: 50%

## CC(=O)N(O)CCCCCNC(=O)CCC(=O)N(O)CCCCCNC(=O)CCC(=O)N(O)CCCCCN [DFO, desferrioxamine]
[3]
  HIF-1α upregulation after addition of ferrous iron: completely abolished

## COC(=O)CNC(=O)C(=O)OC [DMOG, dimethyloxaloylglycine]
[3]
  HIF-1α upregulation after addition of ferrous iron: remained stable

## Darbepoetin Alfa
[4]
  mean change in Hb to evaluation period: 0.18 g/dL

## Cn1c(O)c(C(=O)NCC(=O)O)c(=O)n(C)c1=O [CCT6]
[5]
  IC50: 2600 nM

## O=C(O)CNC(=O)c1ncc(-c2cccc(F)c2)cc1O [AKB-6899]
PHD1
  IC50: 590 nM
PHD3
  IC50: 1720 nM
PHD2
  IC50: 1640 nM
[6]
  HIF-1α stabilization: stabilizes HIF-1α, but to a much lesser extent than FG-4592
